Key:
CXCR3 = target: T1, CXCR3 (Homo sapiens, UniProt P49682); experiment: competition binding analysis using 35S-SCH 535390 as tracer (SPA); design: expressed in transfected cells; host or cells: mouse pro-B Ba/F3 cells (vector pME18Sneo), membrane preparation; settings: competition with 35S-SCH 535390 tracer; multiple experiments; read-out: affinity constant (Ki) of binding to human CXCR3 receptor
T1 sequence (P49682 1-368): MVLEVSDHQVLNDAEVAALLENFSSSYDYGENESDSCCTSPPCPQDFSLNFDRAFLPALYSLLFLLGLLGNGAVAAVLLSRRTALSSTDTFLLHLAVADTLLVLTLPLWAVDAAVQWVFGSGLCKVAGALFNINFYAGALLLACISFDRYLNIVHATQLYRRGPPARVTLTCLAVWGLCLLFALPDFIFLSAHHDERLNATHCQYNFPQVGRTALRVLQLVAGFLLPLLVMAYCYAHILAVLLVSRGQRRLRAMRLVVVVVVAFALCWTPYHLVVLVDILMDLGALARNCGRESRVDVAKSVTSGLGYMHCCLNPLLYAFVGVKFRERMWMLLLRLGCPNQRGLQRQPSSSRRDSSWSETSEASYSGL
Procedure: (§1) The cDNAs encoding human, mouse and rat CXCR3 were generated based on the published sequences: human (NM_001504), mouse (NM_009910), rat (NM_053415). The cDNAs for monkey and dog CXCR3 were cloned in the lab. All CXCR3 cDNAs were cloned into the mammalian expression vector pME18Sneo, a derivative of the SRα expression vector as described previously. IL-3-dependent mouse pro-B cells Ba/F3 were transfected to express CXCR3 of different species and cell membranes were prepared as described previously.
A scintillation proximity assay was used for radioligand competition binding assays as described previously with some modifications. For each assay point, 1 µg of membrane was preincubated for 1 hr with 300 µg wheat germ agglutinin (WGA) coated SPA beads (GE Healthcare Life Sciences) in the binding buffer (50 mM HEPES, 1 mM CaCl2, 5 mM MgCl2, 125 mM NaCl, 0.002% NaN3, 1.0% BSA) at room temperature. The beads were spun down, resuspended in the binding buffer and transferred to a 96-well Isoplate (Wallac, Gaithersburg, MD). The indicated concentrations of ^125I-hCXCL10, ^125I-hCXCL11 or ^35S-SCH 535390 with a series of titrations of SCH 546738 were added to start the reaction. After indicated reaction times at room temperature, the amount of radioactivity bound to the SPA beads was determined with a Wallac 1450 Microbeta counter (Wallac). […]

C57BL/6 mice = experiment: mouse experimental autoimmune encephalomyelitis (MOG35-55); assay type: in vivo
Procedure: Female C57BL/6 mice were purchased from Jackson Laboratory (Bar Harbor, ME). For immunization, 150 μg MOG35-55 peptide prepared by Princeton Biomolecules (Langhorne, PA, USA) and 300 μg killed Mycobacterium tuberculosis (Difco, Detroit, MI) were mixed in CFA (Sigma-Aldrich, St Louis, MO, USA) and injected s.c. in two 50-μl injections over the flanks on day 1. Also, 200 ng of pertussis toxin (Sigma-Aldrich, St Louis, MO) was injected i.v. on days 0 and 2. The compound was administered orally twice daily. Dosing with the compound started at day 0, 24 h prior to MOG35-55 immunization (day 1). Mice were monitored daily and assessed for clinical signs of disease in a blinded fashion according to the following criteria: 0, no signs of disease; 1, tail paralysis; 2, limp tail and hind limb weakness; 3, hind limb paralysis; 4, hind limb plus forelimb paralysis; and 5, moribund or dead. Cumulative clinical scores were calculated by adding daily scores from the day of immunization until the end of the experiment. Mean clinical scores at separate days and mean maximal scores were calculated by adding the scores of individual mice and dividing with the number of mice in each group, including mice not developing signs of EAE. […]

mouse CXCR3 = target: T2, mouse CXCR3 (Mus musculus, UniProt O88410); experiment: [125I]hCXCL10 competition binding (SPA, Ba/F3 membranes); settings: read-out: IC50 (nM) (CXCL10)
T2 construct: expressed in transfected cells; host or cells: mouse pro-B Ba/F3 cells (vector pME18Sneo), membrane preparation
Procedure: as §1
(§2) A scintillation proximity assay was used for radioligand competition binding assays as described previously with some modifications. For each assay point, 1 µg of membrane was preincubated for 1 hr with 300 µg wheat germ agglutinin (WGA) coated SPA beads (GE Healthcare Life Sciences) in the binding buffer (50 mM HEPES, 1 mM CaCl2, 5 mM MgCl2, 125 mM NaCl, 0.002% NaN3, 1.0% BSA) at room temperature. The beads were spun down, resuspended in the binding buffer and transferred to a 96-well Isoplate (Wallac, Gaithersburg, MD). The indicated concentrations of ^125I-hCXCL10, ^125I-hCXCL11 or ^35S-SCH 535390 with a series of titrations of SCH 546738 were added to start the reaction. After indicated reaction times at room temperature, the amount of radioactivity bound to the SPA beads was determined with a Wallac 1450 Microbeta counter (Wallac).
(§3) It is important to investigate species specificity of SCH 546738 to design in vivo preclinical studies.

dog CXCR3 = target: T3, dog CXCR3 (Canis lupus familiaris, UniProt Q5KSK8); experiment: as above; settings: read-out: IC50 (nM) (CXCL10)
T3 construct: expressed in transfected cells; host or cells: mouse pro-B Ba/F3 cells (vector pME18Sneo), membrane preparation
Procedure: as §1, §2, §3

rat CXCR3 = target: T4, rat CXCR3 (Rattus norvegicus, UniProt Q9JII9); experiment: as above; settings: read-out: IC50 (nM) (CXCL10)
T4 construct: expressed in transfected cells; host or cells: mouse pro-B Ba/F3 cells (vector pME18Sneo), membrane preparation
Procedure: as §1, §2, §3

T4 sequence (Q9JII9 whole entry): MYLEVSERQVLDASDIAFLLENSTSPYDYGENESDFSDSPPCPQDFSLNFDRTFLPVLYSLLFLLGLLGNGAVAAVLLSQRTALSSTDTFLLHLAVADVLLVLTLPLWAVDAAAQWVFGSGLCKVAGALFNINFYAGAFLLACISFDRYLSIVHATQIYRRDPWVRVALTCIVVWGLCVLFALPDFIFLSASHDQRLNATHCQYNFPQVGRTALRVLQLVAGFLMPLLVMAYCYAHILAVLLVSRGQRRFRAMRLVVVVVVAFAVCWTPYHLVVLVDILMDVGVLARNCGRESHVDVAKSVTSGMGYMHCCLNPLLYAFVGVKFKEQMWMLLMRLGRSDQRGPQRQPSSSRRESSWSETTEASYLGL
T3 sequence (Q5KSK8 whole entry): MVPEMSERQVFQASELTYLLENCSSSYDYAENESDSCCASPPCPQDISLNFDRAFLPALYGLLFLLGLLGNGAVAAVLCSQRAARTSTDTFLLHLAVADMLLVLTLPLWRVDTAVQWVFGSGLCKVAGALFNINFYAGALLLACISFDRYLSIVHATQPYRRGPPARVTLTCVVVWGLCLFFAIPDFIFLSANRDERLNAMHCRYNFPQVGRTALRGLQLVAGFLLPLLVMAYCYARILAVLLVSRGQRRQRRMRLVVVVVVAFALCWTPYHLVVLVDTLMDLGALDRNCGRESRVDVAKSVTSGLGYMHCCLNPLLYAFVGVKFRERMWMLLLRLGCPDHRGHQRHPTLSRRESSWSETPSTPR
T2 sequence (O88410 whole entry): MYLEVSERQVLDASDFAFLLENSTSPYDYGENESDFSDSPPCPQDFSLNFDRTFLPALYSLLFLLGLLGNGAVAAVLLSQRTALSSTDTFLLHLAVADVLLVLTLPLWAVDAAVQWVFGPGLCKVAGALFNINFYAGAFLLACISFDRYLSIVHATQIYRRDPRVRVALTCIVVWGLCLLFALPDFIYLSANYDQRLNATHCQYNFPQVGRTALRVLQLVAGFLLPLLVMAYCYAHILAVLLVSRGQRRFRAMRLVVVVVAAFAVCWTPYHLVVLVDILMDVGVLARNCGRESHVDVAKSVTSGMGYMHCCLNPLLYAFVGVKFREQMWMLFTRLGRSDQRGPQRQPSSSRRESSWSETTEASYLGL

CC[C@H]1CN(c2nc(N)c(C(N)=O)nc2Cl)CCN1C1CCN(Cc2ccc(Cl)cc2)CC1 [SCH 546738]
Ki (CXCR3): 0.4 nM
effect on disease onset and severity (C57BL/6 mice; 30 mpk orally twice daily, alone, days 17 and 19): delayed disease onset and attenuated disease severity
effect on disease onset and severity, combination treatment (C57BL/6 mice; SCH 546738 30 mpk p.o. twice daily combined with IFN-β 1700 ng i.m. daily, compared to either alone): significant additive effect
IC50 (mouse CXCR3): 5.9 nM
IC50 (dog CXCR3): 6.4 nM
IC50 (rat CXCR3): 4.2 nM

Source: publication PMC3298469, “A selective and potent CXCR3 antagonist SCH 546738 attenuates the development of autoimmune diseases and delays graft rejection” (BMC Immunology, 2012)
